One test addresses T1, D(4) dopamine receptor (Homo sapiens, UniProt P21917).
T1 sequence (P21917 whole entry): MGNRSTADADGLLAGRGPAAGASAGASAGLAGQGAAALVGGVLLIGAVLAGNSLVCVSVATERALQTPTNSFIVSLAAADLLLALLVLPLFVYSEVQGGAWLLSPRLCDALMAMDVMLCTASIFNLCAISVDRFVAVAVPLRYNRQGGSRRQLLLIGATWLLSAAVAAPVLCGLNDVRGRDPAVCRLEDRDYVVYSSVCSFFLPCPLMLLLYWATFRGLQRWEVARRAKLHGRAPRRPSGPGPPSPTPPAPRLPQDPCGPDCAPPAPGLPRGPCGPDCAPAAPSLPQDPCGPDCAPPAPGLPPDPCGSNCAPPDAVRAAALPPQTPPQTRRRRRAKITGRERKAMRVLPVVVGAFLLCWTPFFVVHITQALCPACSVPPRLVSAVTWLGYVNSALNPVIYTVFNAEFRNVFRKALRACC

Another test has as its target Substance-P receptor (Homo sapiens, UniProt P25103).
Test [1] addresses T2, Gastric inhibitory polypeptide receptor (Homo sapiens, UniProt P48546).
T2 sequence (P48546 whole entry): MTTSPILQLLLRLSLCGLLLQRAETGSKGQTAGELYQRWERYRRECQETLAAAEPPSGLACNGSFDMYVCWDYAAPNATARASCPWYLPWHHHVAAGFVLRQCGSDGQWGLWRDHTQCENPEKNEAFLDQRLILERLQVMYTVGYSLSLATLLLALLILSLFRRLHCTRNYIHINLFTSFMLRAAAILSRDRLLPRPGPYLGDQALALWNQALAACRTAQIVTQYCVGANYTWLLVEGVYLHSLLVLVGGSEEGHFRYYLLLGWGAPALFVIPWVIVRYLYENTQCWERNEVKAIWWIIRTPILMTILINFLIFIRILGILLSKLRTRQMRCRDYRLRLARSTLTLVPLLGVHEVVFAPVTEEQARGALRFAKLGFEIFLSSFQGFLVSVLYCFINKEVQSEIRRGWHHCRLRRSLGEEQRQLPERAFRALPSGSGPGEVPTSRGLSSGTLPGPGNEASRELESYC

Test [2] concerns the target T3, Neuropeptide Y receptor type 2 (Homo sapiens, UniProt P49146).
T3 sequence (P49146 whole entry): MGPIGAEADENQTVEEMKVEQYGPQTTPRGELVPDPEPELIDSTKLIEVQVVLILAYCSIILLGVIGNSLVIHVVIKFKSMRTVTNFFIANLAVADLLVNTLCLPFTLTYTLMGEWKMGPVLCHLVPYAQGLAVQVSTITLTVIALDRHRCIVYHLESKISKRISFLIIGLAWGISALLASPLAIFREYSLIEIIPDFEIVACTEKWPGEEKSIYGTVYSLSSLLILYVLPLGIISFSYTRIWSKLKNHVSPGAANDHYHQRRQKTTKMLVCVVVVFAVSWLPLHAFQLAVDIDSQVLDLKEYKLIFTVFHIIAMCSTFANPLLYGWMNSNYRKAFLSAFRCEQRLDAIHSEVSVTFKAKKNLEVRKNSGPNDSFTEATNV

For test [3], the target named is T4, Alpha-1A adrenergic receptor (Homo sapiens, UniProt P35348).
T4 sequence (P35348 whole entry): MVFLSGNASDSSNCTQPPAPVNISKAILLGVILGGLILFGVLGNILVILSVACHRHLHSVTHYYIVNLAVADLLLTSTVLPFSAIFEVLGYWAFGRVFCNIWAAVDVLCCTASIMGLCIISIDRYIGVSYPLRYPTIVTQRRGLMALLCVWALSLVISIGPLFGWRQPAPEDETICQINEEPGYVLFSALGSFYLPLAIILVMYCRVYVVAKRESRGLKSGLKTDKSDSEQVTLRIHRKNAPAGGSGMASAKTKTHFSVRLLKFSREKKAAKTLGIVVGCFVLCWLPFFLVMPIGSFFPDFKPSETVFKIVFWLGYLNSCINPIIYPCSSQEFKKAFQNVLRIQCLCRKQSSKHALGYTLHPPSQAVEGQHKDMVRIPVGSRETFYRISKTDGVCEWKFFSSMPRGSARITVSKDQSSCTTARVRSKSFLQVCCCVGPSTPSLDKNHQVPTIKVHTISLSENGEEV

Test [4] deals with T5, Corticotropin-releasing factor receptor 2 (Homo sapiens, UniProt Q13324).
T5 sequence (Q13324 whole entry): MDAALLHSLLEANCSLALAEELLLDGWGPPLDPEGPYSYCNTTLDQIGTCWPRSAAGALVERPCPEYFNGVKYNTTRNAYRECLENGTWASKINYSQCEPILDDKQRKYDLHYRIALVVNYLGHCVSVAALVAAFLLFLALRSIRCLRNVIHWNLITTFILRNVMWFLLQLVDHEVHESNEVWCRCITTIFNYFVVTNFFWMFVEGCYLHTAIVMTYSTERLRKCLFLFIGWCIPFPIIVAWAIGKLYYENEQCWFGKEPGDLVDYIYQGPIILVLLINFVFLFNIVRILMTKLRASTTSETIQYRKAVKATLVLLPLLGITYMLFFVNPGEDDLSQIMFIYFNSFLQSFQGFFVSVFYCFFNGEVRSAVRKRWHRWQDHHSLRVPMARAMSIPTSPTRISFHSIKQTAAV

In test [5] the target is 5-hydroxytryptamine receptor 7 (Homo sapiens, UniProt P34969).
Test [6] addresses T6, Endothelin receptor type B (Homo sapiens, UniProt P24530).
T6 sequence (P24530 whole entry): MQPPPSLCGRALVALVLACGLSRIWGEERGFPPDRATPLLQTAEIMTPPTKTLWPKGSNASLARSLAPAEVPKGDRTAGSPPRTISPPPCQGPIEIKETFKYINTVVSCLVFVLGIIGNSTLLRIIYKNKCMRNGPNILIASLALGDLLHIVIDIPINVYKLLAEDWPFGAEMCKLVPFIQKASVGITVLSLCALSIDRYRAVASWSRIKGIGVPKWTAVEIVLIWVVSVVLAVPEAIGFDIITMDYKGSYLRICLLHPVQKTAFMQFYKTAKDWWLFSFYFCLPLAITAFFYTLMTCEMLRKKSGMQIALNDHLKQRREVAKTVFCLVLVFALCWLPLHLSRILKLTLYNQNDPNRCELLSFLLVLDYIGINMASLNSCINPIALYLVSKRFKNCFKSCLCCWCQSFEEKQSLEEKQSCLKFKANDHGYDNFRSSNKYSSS

For a further test, the target named is Estrogen receptor beta (Homo sapiens, UniProt Q92731).
In test [7] the target is 5-hydroxytryptamine receptor 6 (Homo sapiens, UniProt P50406).
The target in test [8] is 5-hydroxytryptamine receptor 2B (Homo sapiens, UniProt P41595).

In ChEMBL document CHEMBL5291721, “A preclinical secondary pharmacology resource illuminates target-adverse drug reaction associations of marketed drugs” (Nat Commun, 2023) one finds AC50 data, which are given here for 13 compounds.
Also: assay procedure not described here.

Chain of 5-hydroxytryptamine receptor 6 (P50406 whole entry): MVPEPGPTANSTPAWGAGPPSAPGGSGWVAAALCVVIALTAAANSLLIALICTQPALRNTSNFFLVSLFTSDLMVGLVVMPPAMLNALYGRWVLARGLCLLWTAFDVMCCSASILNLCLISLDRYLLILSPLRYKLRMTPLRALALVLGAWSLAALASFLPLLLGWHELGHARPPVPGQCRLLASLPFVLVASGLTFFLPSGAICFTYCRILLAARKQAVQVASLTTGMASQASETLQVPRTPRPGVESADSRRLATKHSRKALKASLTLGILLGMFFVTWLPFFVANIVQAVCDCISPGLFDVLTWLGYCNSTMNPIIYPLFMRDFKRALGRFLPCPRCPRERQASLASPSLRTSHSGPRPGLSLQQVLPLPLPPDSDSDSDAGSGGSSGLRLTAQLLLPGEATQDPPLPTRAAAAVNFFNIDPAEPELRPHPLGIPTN
Chain of Estrogen receptor beta (Q92731 whole entry): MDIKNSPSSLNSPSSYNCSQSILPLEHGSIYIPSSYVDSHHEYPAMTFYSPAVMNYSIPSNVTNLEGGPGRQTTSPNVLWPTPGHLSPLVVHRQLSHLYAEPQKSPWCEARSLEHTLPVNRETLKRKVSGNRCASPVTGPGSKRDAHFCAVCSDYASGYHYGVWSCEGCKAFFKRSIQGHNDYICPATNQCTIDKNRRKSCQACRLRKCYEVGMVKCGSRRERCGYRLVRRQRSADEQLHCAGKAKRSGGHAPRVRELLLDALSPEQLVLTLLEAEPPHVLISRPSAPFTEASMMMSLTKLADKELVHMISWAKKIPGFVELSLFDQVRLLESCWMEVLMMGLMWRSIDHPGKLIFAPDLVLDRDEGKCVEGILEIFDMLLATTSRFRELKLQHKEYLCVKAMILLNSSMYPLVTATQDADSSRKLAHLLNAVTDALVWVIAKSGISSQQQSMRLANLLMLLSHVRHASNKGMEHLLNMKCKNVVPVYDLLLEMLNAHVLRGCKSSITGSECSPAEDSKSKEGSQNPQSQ
Chain of Substance-P receptor (P25103 whole entry): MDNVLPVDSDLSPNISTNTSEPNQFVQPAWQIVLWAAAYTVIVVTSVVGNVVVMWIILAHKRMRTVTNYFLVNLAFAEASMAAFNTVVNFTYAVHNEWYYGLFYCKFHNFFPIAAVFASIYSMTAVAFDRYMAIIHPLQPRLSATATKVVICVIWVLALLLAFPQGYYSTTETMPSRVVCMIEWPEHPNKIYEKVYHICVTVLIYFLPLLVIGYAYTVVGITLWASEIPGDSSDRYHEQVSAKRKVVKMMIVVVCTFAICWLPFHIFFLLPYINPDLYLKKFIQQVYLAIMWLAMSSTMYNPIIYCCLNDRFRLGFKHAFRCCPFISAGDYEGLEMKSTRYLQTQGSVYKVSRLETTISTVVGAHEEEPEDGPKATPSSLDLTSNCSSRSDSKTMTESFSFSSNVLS
Chain of 5-hydroxytryptamine receptor 7 (P34969 whole entry): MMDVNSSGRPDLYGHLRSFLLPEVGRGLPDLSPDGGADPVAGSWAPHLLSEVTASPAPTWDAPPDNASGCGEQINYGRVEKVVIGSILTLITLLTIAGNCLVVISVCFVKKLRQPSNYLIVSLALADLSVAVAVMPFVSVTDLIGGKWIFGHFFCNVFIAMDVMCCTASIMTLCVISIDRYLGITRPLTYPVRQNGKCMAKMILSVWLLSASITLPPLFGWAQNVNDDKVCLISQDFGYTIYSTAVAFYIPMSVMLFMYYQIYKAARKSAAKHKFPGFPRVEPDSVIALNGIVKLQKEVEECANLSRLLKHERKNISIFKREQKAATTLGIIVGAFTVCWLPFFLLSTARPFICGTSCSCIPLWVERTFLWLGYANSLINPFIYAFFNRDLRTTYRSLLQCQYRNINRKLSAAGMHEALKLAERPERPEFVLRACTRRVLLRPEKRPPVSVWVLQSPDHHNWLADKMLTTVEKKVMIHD
Chain of 5-hydroxytryptamine receptor 2B (P41595 whole entry): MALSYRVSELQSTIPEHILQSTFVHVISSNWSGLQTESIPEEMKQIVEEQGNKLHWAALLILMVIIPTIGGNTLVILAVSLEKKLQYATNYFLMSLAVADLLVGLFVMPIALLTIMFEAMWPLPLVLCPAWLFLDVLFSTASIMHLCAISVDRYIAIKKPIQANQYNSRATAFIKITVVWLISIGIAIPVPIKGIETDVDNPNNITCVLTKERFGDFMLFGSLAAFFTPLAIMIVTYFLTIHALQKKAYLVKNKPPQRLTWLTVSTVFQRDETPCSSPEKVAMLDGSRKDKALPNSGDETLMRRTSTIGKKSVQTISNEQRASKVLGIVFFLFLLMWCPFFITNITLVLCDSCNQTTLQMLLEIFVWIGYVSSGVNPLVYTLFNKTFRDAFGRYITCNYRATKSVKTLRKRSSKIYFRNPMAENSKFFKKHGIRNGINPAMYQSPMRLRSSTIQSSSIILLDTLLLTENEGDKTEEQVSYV

The AC50 is the concentration at which the activity in the assay is half-maximal. In the case of `NCCCC(O)(P(=O)(O)O)P(=O)(O)O` [ALENDRONIC ACID], the AC50 was over 10 µM on D(4) dopamine receptor; over 10 µM on Substance-P receptor; over 30 µM in test [1]; over 30 µM in test [2]; over 10 µM in test [3]; over 30 µM in [4]. The AC50 in test [5] was over 10 µM; in test [6], over 30 µM; on Estrogen receptor beta, over 30 µM; in [7] it was over 10 µM.

On to `CCCC(C)(COC(N)=O)COC(=O)NC(C)C` (stereo not given) [CARISOPRODOL], for which the half-maximal activity concentration (AC50) is over 10 µM at D(4) dopamine receptor; over 10 µM at Substance-P receptor; over 30 µM in test [1]; over 30 µM in test [2]; over 10 µM in test [3]; over 10 µM in test [8]. The concentration at half-maximal activity (AC50) in [4] and in [6] was over 30 µM in each case.

For the compound `N[C@H](Cc1cc(I)c(Oc2cc(I)c(O)c(I)c2)c(I)c1)C(=O)O` [DEXTROTHYROXINE], the AC50 in test [1] is over 30 µM; in test [2], over 30 µM; in test [8] it was over 10 µM; in [4], over 30 µM; in [6] it was over 30 µM; on Estrogen receptor beta it was over 30 µM.

In the case of `CC(=O)OCC(CCn1cnc2cnc(N)nc21)COC(C)=O` [FAMCICLOVIR], the AC50 on D(4) dopamine receptor is over 10 µM; on Substance-P receptor, over 10 µM; in test [1], over 30 µM; in test [2] it was over 30 µM; in test [3], over 10 µM; in test [8] it was over 10 µM. Moreover, the AC50 (in test [4]; in test [6]; on Estrogen receptor beta) was over 30 µM throughout.

Take `O=C(O)c1ccccc1Nc1cccc(C(F)(F)F)c1` [FLUFENAMIC ACID]: the AC50 (in [1]; in test [2]; in test [4]; in [6]; at Estrogen receptor beta) was over 30 µM throughout.

Consider `COC1=C(OC)C(=O)C(CCCCCCCCCCO)=C(C)C1=O` [IDEBENONE], for which the concentration at half-maximal activity (AC50) at D(4) dopamine receptor was over 10 µM; at Substance-P receptor, over 10 µM; in test [1] it was over 30 µM; in test [2] it was over 30 µM; in test [3], over 10 µM; in test [8] it was 8.99 µM. For the same compound, the AC50 is over 30 µM in [4]; over 10 µM in test [5]; over 30 µM in [6]; over 30 µM at Estrogen receptor beta; over 10 µM in [7].

As for `CC#CCn1c(N2CCC[C@@H](N)C2)nc2c1c(=O)n(Cc1nc(C)c3ccccc3n1)c(=O)n2C` [LINAGLIPTIN], the AC50 in [8] was over 10 µM.

Take `O=C1CN=C(c2ccccc2)c2cc(Cl)ccc2N1` [NORDAZEPAM]: the AC50 at D(4) dopamine receptor is over 10 µM; on Substance-P receptor, over 10 µM; in test [1] it was over 30 µM; in test [2], over 30 µM; in [3], over 10 µM; in [8], over 10 µM. For the same compound, the AC50 in test [4] is over 30 µM; in [5] it was over 10 µM; in [6], over 30 µM; at Estrogen receptor beta it was over 30 µM; in test [7], over 10 µM.

With `CC(CCc1ccccc1)NC(C)C(O)c1ccc(O)cc1` (stereo not given) [NYLIDRIN], the AC50 on D(4) dopamine receptor is over 10 µM; on Substance-P receptor, over 10 µM; in test [1], over 30 µM; in test [2], over 30 µM; in [8], 0.733 µM; in test [4], over 30 µM. For the same compound, the AC50 in [5] was over 10 µM; in test [6], over 30 µM; in test [7], over 10 µM.

As for `O=C1Nc2ccc(Cl)cc2C(c2ccccc2)=NC1O` (stereo not given) [OXAZEPAM], the AC50 at D(4) dopamine receptor was over 10 µM; at Substance-P receptor, over 10 µM; in test [1], over 30 µM; in test [2], over 30 µM; in test [3], over 10 µM; in test [4] it was over 30 µM. For the same compound, the AC50 in [5] was over 10 µM; in test [6] it was over 30 µM; on Estrogen receptor beta, over 30 µM; in test [7] it was over 10 µM.

On to `CC(C)CC(N(C)C)C1(c2ccc(Cl)cc2)CCC1` (stereo not given) [SIBUTRAMINE], for which the AC50 on D(4) dopamine receptor is over 10 µM; at Substance-P receptor it was over 10 µM; in [1] it was over 30 µM; in test [2] it was over 30 µM; in test [3], over 10 µM; in test [4] it was over 30 µM. Further, the half-maximal activity concentration (AC50) (in test [6]; on Estrogen receptor beta) was over 30 µM in each case.

`[H]/N=C(/N)N[C@H]1[C@H](O)[C@@H](O)[C@H](O[C@@H]2O[C@@H](C)[C@](O)(C=O)[C@H]2O[C@@H]2O[C@@H](CO)[C@H](O)[C@@H](O)[C@@H]2NC)[C@@H](N/C(N)=N\[H])[C@@H]1O` [STREPTOMYCIN]: the AC50 was over 10 µM at D(4) dopamine receptor; over 10 µM on Substance-P receptor; over 30 µM in test [1]; over 30 µM in [2]; over 10 µM in test [3]; over 10 µM in test [8]. For the same compound, the AC50 in test [4] was over 30 µM; in test [5], over 10 µM; in test [6], over 30 µM; on Estrogen receptor beta, over 30 µM; in test [7], over 10 µM.

In the case of `N#C[C@@H]1CCCN1C(=O)CNC12CC3CC(CC(O)(C3)C1)C2` [VILDAGLIPTIN], the AC50 (at D(4) dopamine receptor; at Substance-P receptor; in test [3]; in test [8]; in [5]; in [7]) was over 10 µM each time.
